{"source": "paper PMC7324617", "about": "“Selection and identification of a novel bone-targeting peptide for biomedical imaging of bone” (Scientific Reports, 2020)", "key": {"Saos-2 cells": {"system": "Saos-2 cells", "assay": "Cytotoxicity assay (WST-1) in Saos-2 cells", "assay_type": "cell-based", "settings": "1 nM to 100 μM, 24 h, 48 h and 72 h, WST-1, triplicates", "experimental": "The biocompatibility of HA-pep3 is important for assessing the feasibility of its in vivo application. Therefore, we performed HA-pep3 cytotoxicity assessment in osteoblastic Saos-2 osteogenic cells for 24 h, 48 h and 72 h (Fig. 6a and Figure S3). The cell viability was measured using various concentrations of HA-pep3 ranging from 1 nM to 100 μM. […] Next, we analyzed HA-pep3 in vivo application feasibility. We used Cy5.5 dye with near-infrared wavelength for in vivo imaging, to minimize tissue adsorption. After Cy5.5 dye labeling, scrambled peptide and HA-pep3 were injected into the tail vein of nude mice. […] The fluorescence intensity in bone was about 3.32 folds higher for Cy5.5-HA-pep3 than for a scrambled sequence (Fig. 6d).\nSaos-2 osteosarcoma osteogenic primary cell line was purchased from the Korean cell line bank. Cells were cultured in […] medium with L-glutamine (300 mg/L), 25 mM HEPES, and 25 mM NaHCO3 supplemented with 10% heat-inactivated fetal bovine serum (FBS), 100 U/mL penicillin, and 100 μg/mL streptomycin. The cell lines were cultured at 37 °C and up to 5% CO2 in humidified atmosphere. All reagents and cell culture media were purchased from the WELGENE Company, South Korea. HA-pep3 cytotoxicity was examined using WST-1 assay. […] Finally, the absorbance was measured at 450 nm using a microplate spectrophotometer (Tecan Infinite 200). […]"}, "[1]": {"assay": "Blood analysis for in vivo clearance", "set-up": "species or system mice", "settings": "blood samples 10 μL at 1, 3, 6 and 12 h after intravenous injection of Cy5.5-HA pep3; fluorescence (IVIS)", "description": "We used X-ray function of in vivo imaging machine, IVIS Lumina XRMS and performed X-ray imaging of the mice with Cy5.5-HA pep3. With x-ray images, we could observe the high fluorescence intensity at spine (Figure S5a). In additions, we compared its biodistribution in vivo to our Cy5.5-HA pep3 and E7 positive peptide after intravenous injection. […] In addition, we performed blood analysis to determine clearance of our peptide in vivo (Figure S6).\nAll animal studies were approved by the Institutional Review Board of the Catholic University of Korea (approval No. CUMC-2019-0003-01). BALB/c nude mice (4 weeks old, OrientBio, Seongnam city, Korea) and wild type C3H/HeN mice were used for in vivo imaging. Cy5.5-scramble peptide or Cy5.5-HAp peptide (5 mg/kg of peptide in 100 µL physiological saline, n = 3) were administered to the mice by a tail vein injection. […] All images were analyzed with Living Image 4.5 software (PerkinElmer Inc., Massachusetts, USA). […] The fluorescence intensity of […] in samples was measured by IVIS Lumina XRMS.\nFigure S6. […] (a) Time-dependent fluorescence images of blood sample obtained from mice tail at 1, 2, 3, 6 and 12h after intravenous injection of Cy5.5-HA pep3. (b) Average fluorescence intensity graph of the blood samples in (a)."}}, "note": "Entries after “also recorded” stand apart in the source; their conditions may differ. Where no end group is shown, it is not given here."}
{"sequence": "KNFQSRSH [HA-pep3]", "values": [{"measurement": "cytotoxicity (cell viability)", "setting": "Saos-2 cells", "result": "no cytotoxicity; also recorded: did not show any cytotoxicity up to 100 μM"}, {"measurement": "clearance from blood", "setting": "[1]", "result": "disappeared in blood after 12 h"}]}
